Assay results reported in article PMC5332298 (Nature cell biology, 2017).
Where two headings read alike, the source gives them in different places.

Tests used:
[1] = target: AKT-PIP3 binding (Homo sapiens, UniProt P31749); assay: biochemical
[2] = system: MDA-MB-231 spheroids; assay: 3-D spheroid fluorometric proliferation/viability assay; type: cell-based, Human; conditions: for proliferation (growth) of spheroids: 50 nM MK2206 or 25 nM perifosine, 4 days
[3] = system: MDA-MB-231 spheroids; assay: 3D spheroid BME cell invasion assay; type: cell-based, Human; conditions: 50 nM MK2206 or 25 nM perifosine, 4 days
[4] = system: MS2-LINK-A-PIP3 interaction in MDA-MB-231 cells; assay: MS2-TRAP assay with PIP3 mass ELISA; type: cell-based, Human; conditions: cell permeable competitor 100 µM, 2 hrs
[5] = system: LINK-A-PIP3 interaction; assay: RNA-lipid overlay assay on PIP arrays with soluble competitors; type: binding; conditions: 100:1 molar ratio to RNA
[6] = system: LINK-A-PIP3 interaction in MDA-MB-231 cells; assay: RIP assay using a PIP3 antibody; conditions: MDA-MB-231 cells treated with PI3K inhibitor
[7] = system: LINK-A-PIP3 interaction; assay: RNA-lipid vesicles; type: binding; conditions: 100:1 molar ratio to PIP3
[8] = target: AKT (His6-tagged recombinant, ThermoFisher) (UniProt P31749 1-480); assay: Alpha competition assay
Sequence of AKT (His6-tagged recombinant, ThermoFisher) (P31749 whole entry): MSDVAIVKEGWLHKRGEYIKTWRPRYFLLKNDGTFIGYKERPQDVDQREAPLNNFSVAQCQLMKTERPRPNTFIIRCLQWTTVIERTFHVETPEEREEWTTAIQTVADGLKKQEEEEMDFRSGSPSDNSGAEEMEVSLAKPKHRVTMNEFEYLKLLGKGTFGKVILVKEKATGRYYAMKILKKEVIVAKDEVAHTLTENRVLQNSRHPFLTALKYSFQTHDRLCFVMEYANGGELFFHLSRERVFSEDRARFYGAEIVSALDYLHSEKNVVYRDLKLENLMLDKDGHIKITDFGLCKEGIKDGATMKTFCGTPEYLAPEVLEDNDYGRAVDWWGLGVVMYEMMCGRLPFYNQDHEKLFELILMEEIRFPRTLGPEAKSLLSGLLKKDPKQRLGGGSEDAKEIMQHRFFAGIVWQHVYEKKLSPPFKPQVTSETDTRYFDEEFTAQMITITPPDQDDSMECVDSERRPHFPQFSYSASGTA

Sequence of AKT-PIP3 binding (P31749 whole entry): as above

## NC1(c2ccc(-c3nc4ccn5c(=O)[nH]nc5c4cc3-c3ccccc3)cc2)CCC1 [MK2206]
[1]; in vitro, presence of FL LINK-A
  antagonism of the inhibitory effect by FL LINK-A: 753 fold
[2]; LINK-A PIP3-BM−/− spheroids
  proliferation (growth) of spheroids: efficiently inhibited
[2]; LINK-A PIP3BM+/+ spheroids
  proliferation (growth) of spheroids: undetectable effect
[3]; LINK-A PIP3-BM−/− spheroids
  invasion of spheroids: efficiently inhibited
[3]; LINK-A PIP3BM+/+ spheroids
  invasion of spheroids: undetectable effect

## O=P(O)(O)OC1[C@@H](OP(=O)(O)O)[C@H](OP(=O)(O)O)C(O)[C@H](OP(=O)(O)O)[C@H]1OP(=O)(O)O (stereo partly drawn) [PI(1,3,4,5,6)P5]
[4]
  MS2-LINK-A-associated PIP3 (PIP3 mass ELISA): impaired

## Phosphatidylinositol-3,4,5-trisphosphate [PIP3]
[5]
  effect of soluble competitor on LINK-A binding to PIP array: abolished

## O=c1cc(N2CCOCC2)oc2c(-c3ccccc3)cccc12 [LY294002]
[6]
  LINK-A-PIP3 interaction in vivo (RIP with PIP3 antibody): abolished

## CCCCCCCCCCCCCCCCCCOP(=O)([O-])OC1CC[N+](C)(C)CC1 [perifosine]
[1]
  antagonism of the inhibitory effect by FL LINK-A: 140 fold
[1]; IC50 for inhibiting AKT-PIP3 binding
  IC50: 4.8 µM
[2]; LINK-A PIP3-BM−/− spheroids
  proliferation (growth) of spheroids: efficiently inhibited
[2]; LINK-A PIP3BM+/+ spheroids
  proliferation (growth) of spheroids: undetectable effect
[2]; spheroid viability IC50
  sensitization of LINK-A PIP3-BM−/− spheroids vs PIP3-BM+/+: about 20,000 fold
[3]; LINK-A PIP3-BM−/− spheroids
  invasion of spheroids: efficiently inhibited
[3]; LINK-A PIP3BM+/+ spheroids
  invasion of spheroids: undetectable effect

## O=P(O)(O)OC1[C@H](O)[C@H](OP(=O)(O)O)C(OP(=O)(O)O)[C@H](OP(=O)(O)O)[C@H]1O (stereo partly drawn) [IP4, D-myo-Inositol 1,3,4,5-tetrakisphosphate]
[7]
  effect of competitor on recruitment of LINK-A ΔPC to PIP3-containing GUVs: abolished
[5]
  effect of soluble competitor on LINK-A binding to PIP array: abolished

B1: LINK-A nt 1100-1117 WT (structured_RNA)
RNA: CAGGGUAGACUCGCUCUG
[8]
  binding result: binds
